Earlier results as cited in publication PMC8583936, “Machine Learning Assisted Approach for Finding Novel High Activity Agonists of Human Ectopic Olfactory Receptors” (International Journal of Molecular Sciences, 2021).
Read-outs that look alike come from different tables or passages of the source.

Experiments:
[1] = biological target: T1, OR1A1 (Homo sapiens, UniProt Q9P1Q5); conditions: cited from earlier work
T1 sequence (Q9P1Q5 1-309): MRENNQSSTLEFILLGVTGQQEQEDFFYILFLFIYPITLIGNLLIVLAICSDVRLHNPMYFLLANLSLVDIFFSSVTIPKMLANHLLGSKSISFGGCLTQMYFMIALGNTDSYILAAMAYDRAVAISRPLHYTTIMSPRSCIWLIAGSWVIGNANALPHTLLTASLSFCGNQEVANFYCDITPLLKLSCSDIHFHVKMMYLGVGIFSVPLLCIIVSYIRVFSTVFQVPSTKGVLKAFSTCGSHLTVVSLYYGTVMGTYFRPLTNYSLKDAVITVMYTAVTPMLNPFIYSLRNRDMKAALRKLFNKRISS

[2] = biological target: T2, OR2W1 (Homo sapiens, UniProt Q9Y3N9); conditions: cited from earlier work
T2 sequence (Q9Y3N9 1-320): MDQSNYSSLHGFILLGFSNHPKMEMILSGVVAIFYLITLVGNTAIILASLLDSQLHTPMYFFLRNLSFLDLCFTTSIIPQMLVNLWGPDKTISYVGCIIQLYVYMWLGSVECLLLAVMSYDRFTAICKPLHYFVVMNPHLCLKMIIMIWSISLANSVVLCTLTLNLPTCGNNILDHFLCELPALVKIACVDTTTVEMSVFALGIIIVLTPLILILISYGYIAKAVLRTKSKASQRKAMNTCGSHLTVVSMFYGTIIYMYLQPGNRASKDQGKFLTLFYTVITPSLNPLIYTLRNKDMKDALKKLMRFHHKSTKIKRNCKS

[3] = Table S1, ref Supplement references [1]-[9] as printed after each odorant name
[4] = Table S2, ref Supplement references [2]-[12] as printed after each odorant name

SMILES	Class (agonist / non-agonist / conflicting info.) for OR1A1 [1, 3]	Class (agonist / non-agonist / antagonist / conflicting info.) for OR2W1 [2, 4]	Class (agonist / non-agonist / conflicting info.) for OR1A1 [1]	Class (agonist / non-agonist / antagonist / conflicting info.) for OR2W1 [2]
CSC [Dimethyl sulfide]	Non-agonist	Non-agonist		
CSSSC [Dimethyl trisulfide]	Non-agonist	Non-agonist		
CCCSSSCCC [Dipropyl trisulfide]	Non-agonist	Non-agonist		
CCCCC/C=C/C=C/C=O [E,E-2,4-decadienal]	Conflicting info.	Non-agonist		
CCCC/C=C/C=C/C=O [E,E-2,4-nonadienal]	Non-agonist	Non-agonist		
CC/C=C\CC/C=C/C=O [E,Z-2,6-nonadienal]	Non-agonist	Non-agonist		
C=CCc1ccc(OC)cc1 [Estragole]			Agonist	Agonist
CCO [Ethanol]	Non-agonist	Non-agonist		
CCOC(=O)C(C)CC (centres unmarked) [Ethyl 2-methylbutyrate]	Non-agonist	Non-agonist		
CCCC(O)CC(=O)OCC (centres unmarked) [Ethyl 3-hydroxyhexanoate]	Non-agonist	Non-agonist		
CCOC(=O)CCC(C)C [Ethyl 4-methylvalerate]	Non-agonist	Non-agonist		
CCOC(C)=O [Ethyl acetate]	Non-agonist	Non-agonist		
CCOC(=O)c1ccccc1 [Ethyl benzoate]			Non-agonist	Non-agonist
CCCC(=O)OCC [Ethyl butyrate]	Non-agonist	Non-agonist		
CCOC(=O)/C=C/c1ccccc1 [Ethyl cinnamate]	Non-agonist	Non-agonist		
CCOC(=O)C1CCCCC1 [Ethyl cyclohexanecarboxylate]	Agonist	Agonist		
CCCCCCCCCC(=O)OCC [Ethyl decanoate]			Non-agonist	Non-agonist
CCCCCC(=O)OCC [Ethyl hexanoate]	Agonist	Non-agonist		
CCOC(=O)C(C)C [Ethyl isobutyrate]	Non-agonist	Non-agonist		

SMILES	Class (agonist / non-agonist / conflicting info.) for OR1A1 [1, 3]	Class (agonist / non-agonist / antagonist / conflicting info.) for OR2W1 [2, 4]	Class (agonist / non-agonist / conflicting info.) for OR1A1 [1]	Class (agonist / non-agonist / antagonist / conflicting info.) for OR2W1 [2]
CCOC(=O)CC(C)C [Ethyl isovalerate]	Non-agonist	Non-agonist		
CCCCCCCC(=O)OCC [Ethyl octanoate]			Non-agonist	Non-agonist
CCCCC(=O)OCC [Ethyl pentanoate]			Non-agonist	Non-agonist
CCOC(=O)C(C)=O [Ethyl pyruvate]	Non-agonist	Non-agonist		
CCOc1cc(C=O)ccc1O [Ethyl vanillin]	Conflicting info.	Conflicting info.		
C=CC(=O)CC [Ethyl vinyl ketone]	Non-agonist	Non-agonist		
O=C1CCCCCCCCCCCC(=O)OCCO1 [Ethylene brassylate]	Conflicting info.	Antagonist		
CCOC(=O)Cc1ccccc1 [Ethylphenyl acetate]			Agonist	Non-agonist
C=CCc1ccc(OC)c(OC)c1 [Eugenol methyl ether]	Conflicting info.	Non-agonist		
C=CCc1ccc(O)c(OC)c1 [Eugenol]			Conflicting info.	Conflicting info.
C=CCc1ccc(OC(C)=O)c(OC)c1 [Eugenyl acetate]	Non-agonist	Agonist		
C/C=C/C(=O)C(C)CC (centres unmarked) [Filbertone]	Non-agonist	Non-agonist		
CC1=C(O)C(=O)C(C)O1 (centres unmarked) [Furaneol]	Non-agonist	Non-agonist		
SCc1ccco1 [Furfurylthiol]	Non-agonist	Non-agonist		
CCCCCCCC1CCC(=O)O1 (centres unmarked) [Gamma-undecalactone]			Non-agonist	Non-agonist
CC(C)=CCC/C(C)=C/CO [Geraniol]	Conflicting info.	Conflicting info.		
CC(=O)OC/C=C(\C)CCC=C(C)C [Geranyl acetate]	Conflicting info.	Conflicting info.		
COc1ccccc1O [Guaiacol]	Non-agonist	Non-agonist		
